Source: patent publication US20230263798A1, “COMPOSITIONS AND METHODS FOR TREATING THERAPY RESISTANT CANCER” (The General Hospital Corporation, priority 2020, published 2023)
Entries after “also recorded” stand apart in the source; their conditions may differ.

What was measured:
Format in all cases: cell-based
[1] = test system: CD14+ monocytes, CD8+ T cells, and NK (NK92) cells; assay: Co-culture of treated cancer cells with immune cells; conditions: untreated or doxorubicin or gemcitabine treated cells plus agent
From the text: APOBEC3B would lead to neoepitopes that could trigger the immune system. However, this is not readily seen as inhibitors of immune cells such as TGF-β that inhibits NK cells are increased in doxorubicin treated breast cancer cells. […] M6A also downregulates antiviral innate immune response while promoting ADAR1 that suppresses antiviral immunity. Therefore, inhibition of METTL3 would activate them.

[2] = test system: MCF7 cells; assay: Doxorubicin chemosurvival of MCF7 cells; conditions: for doxorubicin chemosurvival with co-treatment: 500 nM Doxorubicin treated MCF7 cells co-treated with agent (5 uM Trazodone, 5 uM ISRIB, 6uM Enzastaurin) vs DMSO buffer
Procedure: This was tested in METTL3 overexpression cells compared to CD-M3 cells compared to control Actin mRNA by qPCR. […] 500 nM Doxorubicin treated MCF7 cells were co-treated with (i) 5 uM of Trazodone, (ii) 5 uM of ISRIB, or DMSO buffer. […] Data are average of 3 replicates +/-SEM. Actin and Tubulin are loading controls for Western blots. See also FIG. 8A-8l.
(§1) FIGS. 8C and 8D show Western blot analysis of PARP1, phospho-elF2α, METTL3 with doxorubicin or Sal003 treatment. […] 500 nM Doxorubicin treated MCF7 cells were co-treated with 6uM of Enzastaurin or DMSO buffer. […] Data are average of 3 replicates +/-SEM.

[3] = test system: phospho-elF2α; assay: Western blot of elF2α phosphorylation in MCF7 cells; conditions: for elF2α phosphorylation: MCF7 cells, agent alone, Western blot; for elF2α phosphorylation in doxorubicin treated cells with agent: addition to doxorubicin treated cells (FIG. 8F)
Procedure: as §1

[4] = test system: METTL3; assay: Western blot analysis of METTL3 in MCF7 cells; conditions: for METTL3 level in doxorubicin treated cells co-treated with agent: doxorubicin treated cells plus agent vs buffer treated
From the text: The Western blot includes samples with control shRNA or shMETTL3. […] Tubulin and Histone serve as Western blot loading controls. Data are average of 3 replicates +/-SEM. See also FIGS. 2A-2G.
(§2) Data are average of 3 replicates +/-SEM. Tubulin serves as the loading control.
(§3) Tubulin and Histone serve as Western blot loading controls. Data are average of 3 replicates +/-SEM. See also FIGS. 4A-4H.
(§4) Actin and Tubulin are loading controls for Western blots. Data are average of 3 replicates +/-SEM.
as §1
(§5) To determine the mechanisms of specific mRNA expression in chemosurviving cancer cells, we examined RNA binding regulators in chemosurviving MCF7 breast cancer cells, isolated after doxorubicin chemotherapy treatment.

[5] = test system: phospho-elF2α; assay: Western blot of elF2α phosphorylation in THP1 cells; conditions: 1 µM Cytarabine over time
[6] = test system: METTL3; assay: Western blot of METTL3 in THP1 cells; conditions: 1 µM Cytarabine over time
[7] = test system: METTL3; assay: Western blot of METTL3 in BT549 cells; conditions: over time of treatment
[8] = test system: phospho-elF2α; assay: Western blot of elF2α phosphorylation in BT549 cells; conditions: over time of treatment
Procedure: as §2
as §5, with “treatment. […] The increase observed is transient and is not observed at 48 h of treatment (FIG. 2A).” for “treatment.”

[9] = test system: Hexim1; assay: Western blot of Hexim1; conditions: treated cells
From the text: (§6) Western blot is shown of other RNA binding proteins that increase in mass spectrometry data. […] FIGS. 6J and 6K show Hexim, PPM1G and HuR increase in chemotreated patient samples and on doxorubicin treatment.
Other RNA binding proteins such as HEXIM1 and PPM1G that increase in doxorubicin surviving cells also associate with METTL3 mRNA and with HuR. The indirect associated protein, Hexim1 is a transcription regulator but also associates with other complexes and RNAs and promotes mRNA stability under nucleotide stress. […] The phosphatase PPM1G is known to associate with Hexim1 and is activated by DNA damage/ATM signaling upon chemotherapy treatment, and upon PI3K/Akt inhibition, consistent with these conditions where METTL3 increases. On Akt inhibition, PPM1G dephosphorylates 4EBP; this inhibits canonical translation, consistent with specific mRNA translation elicited in these conditions.
Therefore, we tested whether Hexim1 was required for METTL3 levels.

[10] = test system: METTL14; assay: Western blot analysis of METTL14 in MCF7 cells; conditions: for METTL14 level in doxorubicin treated cells co-treated with agent: doxorubicin treated cells plus agent (FIGS. 3D and 3E)
From the text: as §3, §4, §6
(§7) If METTL3 is increased by Sal003, then m6A on RNA should increase in such conditions.

[11] = test system: ATF4; assay: Western analysis of ATF4 (ISR response gene); conditions: for ATF4 level in doxorubicin treated cells co-treated with agent: doxorubicin treated cells plus agent vs buffer treated
From the text: as §7

[12] = test system: m6A on RNA; assay: m6A on ribosomal RNA depleted RNA (dot blot, 2D-TLC)
Procedure: The Western blot includes samples with control shRNA or shMETTL3. […] Tubulin and Histone serve as Western blot loading controls. Data are average of 3 replicates +/-SEM. See also FIGS. 2A-2G. […]
To test whether the increased m6A modification enzymes lead to increased m6A modification on RNA, ribosomal RNA depleted RNA from doxorubicin treated cells compared to untreated cells by dot blot analyses was tested. […] Consistent with decreased METTL3 upon knockdown, the dot blot signal is depleted when METTL3 is knocked down (FIG. 1B). Second, RNA from doxorubicin treated cells for m6A by two-dimensional-thin layer chromatography separation (2D-TLC) was performed (H. Grosjean, G. Keith, L. Droogmans, Detection and quantification of modified nucleotides in RNA using thin-layer chromatography. Methods in molecular biology (Clifton, N.J.) 265, 357-391 (2004)).

[13] = test system: PARP1; assay: Western blot analysis of PARP1; conditions: treated cells
Procedure: as §1
Consistently, doxorubicin treated cells are sensitive to PARP inhibitors, such as Talazoparib (BMN-673, FIG. 8B).

[14] = test system: METTL3 mRNA; assay: METTL3 mRNA level and translation (qPCR, polysome fractionation, nascent amino acid labeling); conditions: treated vs buffer treated cells, polysome fractionation and qPCR
Procedure: as §3, §4
To verify that the increase in METTL3 was at the translation level, polysome analysis was conducted first. […] We next verified increased polysome association of METTL3 mRNA with Y10B antibody immunoprecipitation in doxorubicin treated and in Sal003 cells compared to buffer treated cells (FIGS. 3I and 4F).

[15] = MCF7 cells, agent alone vs untreated/buffer, Western blot
[16] = ribosomal RNA depleted RNA from treated vs untreated MCF7 cells, dot blot or 2D-TLC

In the case of `Nc1ncnc2c1nnn2[C@@H]1O[C@H](CO)[C@@H](O)[C@H]1O` [8-azaadenosine], the “survival of treated cancer cells co-cultured with immune cells” value (from here on “survival … with immune cells”) [1] was “sensitive to anti-tumor immunity” and the “doxorubicin chemosurvival with co-treatment” value [2] was “reduced doxorubicin survival”.

In the case of `Cn1c(=O)n(-c2ccc(C(C)(C)C#N)cc2)c2c3cc(-c4cnc5ccccc5c4)ccc3ncc21` [BEZ 235], the elF2α phosphorylation [3] was “elF2α phosphorylation” and the METTL3 level [4, 15] was “Increase”.

For `Nc1ccn([C@@H]2O[C@H](CO)[C@@H](O)[C@@H]2O)c(=O)n1` [Cytarabine], the elF2α phosphorylation [5] was “transient increase” and the METTL3 level [6] was “transient increase”.

`Cn1cc(C2=C(c3cn(C4CCN(Cc5ccccn5)CC4)c4ccccc34)C(=O)NC2=O)c2ccccc21` [Enzastaurin] was tested, and the “METTL3 level in doxorubicin treated cells co-treated with agent” value (shortened to “METTL3 level … with agent”) ([4]; Western blot) was “reduced” and the “doxorubicin chemosurvival with co-treatment” value [2] was “reduced”.

With `Nc1ccn([C@@H]2O[C@H](CO)[C@@H](O)C2(F)F)c(=O)n1` [Gemcitabine] the elF2α phosphorylation [3] was “increase over time”, the METTL3 level [4, 15] was “increase over time” and the METTL3 level [7] was “increase over time”. The elF2α phosphorylation [8] was “increase over time”.

With `CC(=O)NCCCCCCNC(C)=O` [HMBA] the elF2α phosphorylation [3] was “elF2α phosphorylation”, the METTL3 level [4, 15] was “increased” and the Hexim1 level [9] was “increased”. For the same compound, the METTL14 level [10, 15] was “increases”.

For `O=C(COc1ccc(Cl)cc1)NC1CCC(NC(=O)COc2ccc(Cl)cc2)CC1` (centres unmarked) [ISRIB], the “METTL3 level … with agent” value ([4]; Western blot) was “do not show increase”, the “METTL14 level in doxorubicin treated cells co-treated with agent” value [10] was “prevent” and the “ATF4 level in doxorubicin treated cells co-treated with agent” value [11] was “do not show increase”. The “survival … with immune cells” value [1] was “loss of survival” and the “doxorubicin chemosurvival with co-treatment” value [2] was “significant decrease”.

For `CC(C)(C)Cn1c(N)nc2ccc(-c3[nH]c(C(C)(C)C)nc3-c3ccc(F)cc3)nc21` [LY2228820], the “METTL3 level … with agent” value ([4]; Western blot) was “reduces METTL3 increase”.

`O=[N+]([O-])c1ccc(Nc2nc(N3CCOCC3)nc(N3CCOCC3)n2)cc1` [MHY1485] was tested, and the METTL3 level [4, 15] was “decreased”.

For `COc1ccc(COc2cc3oc(=O)c4cc(C(C)O)ccc4c3cc2OC)cc1` (centres unmarked) [Palomid 529], the METTL3 level [4, 15] was “Increase”.

In the case of `C[S+]([O-])c1ccc(-c2nc(-c3ccncc3)c(-c3ccc(F)cc3)[nH]2)cc1` (centres unmarked) [SB203580], the “METTL3 level … with agent” value ([4]; Western blot) was “reduces METTL3 increase”.

In the case of `O=C(/C=C/c1ccccc1)NC(NC(=S)Nc1ccc(Cl)cc1)C(Cl)(Cl)Cl` (centres unmarked) [Sal003], the elF2α phosphorylation [3] was “prevented dephosphorylation”, the METTL3 level [4, 15] was “increased” and the METTL14 level [10, 15] was “increased”. The “m6A on RNA” value [12, 16] was “increased”, the “non-canonical translation of ATF4” value ([11]; MCF7 cells, agent alone) was “induced” and the PARP1 level [13] was “increases”. The “METTL3 mRNA on polysomes compared to monosomes” value [14] was “increased”.

With `Cn1ncnc1[C@H]1c2n[nH]c(=O)c3cc(F)cc(c23)N[C@@H]1c1ccc(F)cc1` [Talazoparib] the “doxorubicin chemosurvival with co-treatment” value [2] was “sensitive”.

With `CC(=O)O[C@H]1C(=O)[C@@]2(C)[C@H]([C@H](OC(=O)c3ccccc3)[C@]3(O)C[C@H](OC(=O)[C@H](O)[C@@H](NC(=O)c4ccccc4)c4ccccc4)C(C)=C1C3(C)C)[C@]1(OC(C)=O)CO[C@@H]1C[C@@H]2O` [Taxol] the METTL3 level [7] was “increase over time” and the elF2α phosphorylation [8] was “increase over time”.

With `CCC(=O)N1CCN(c2ccc(-n3c(=O)ccc4cnc5ccc(-c6cnc7ccccc7c6)cc5c43)cc2C(F)(F)F)CC1` [Torin1] the elF2α phosphorylation [3] was “elF2α phosphorylation”, the METTL3 level ([4]; MCF7 3D tumor spheres) was “increase” and the METTL3 level [4, 15] was “increased”. The METTL14 level ([10]; MCF7 3D tumor spheres) was “increase” and the “m6A on RNA” value ([12]; MCF7 3D tumor spheres, dot blot) was “increased”.

In the case of `CN(C)C(=N)N=C(N)N` [metformin], the “elF2α phosphorylation in doxorubicin treated cells with agent” value [3] was “reduction”, the “METTL3 level … with agent” value ([4]; Western blot) was “decreased induction” and the “survival … with immune cells” value [1] was “loss of survival”. For the same compound, the “doxorubicin chemosurvival with co-treatment” value [2] was “decreased chemosurvival”.

With `[H]/N=C(/N)N/C(=N/[H])NCCc1ccccc1` [phenformin] the “elF2α phosphorylation in doxorubicin treated cells with agent” value [3] was “reduction”, the “METTL3 level … with agent” value ([4]; Western blot) was “decreased induction” and the “survival … with immune cells” value [1] was “loss of survival”. For the same compound, the “doxorubicin chemosurvival with co-treatment” value [2] was “decreased chemosurvival; also recorded: reduced doxorubicin survival”.

In the case of `C/C=C(/C)C(=O)O[C@H]1C(C)=C2[C@H]([C@@H]1OC(=O)CCCCCCC)[C@@](C)(OC(C)=O)C[C@H](OC(=O)CCC)[C@@]1(O)[C@H]2OC(=O)[C@@]1(C)O` [thapsigargin], the elF2α phosphorylation [3] was “induces”, the METTL3 level [4, 15] was “increase” and the METTL14 level [10, 15] was “increase”.

With `O=c1n(CCCN2CCN(c3cccc(Cl)c3)CC2)nc2ccccn12` [trazodone] the “METTL3 level … with agent” value ([4]; Western blot) was “do not show increase”, the “METTL14 level in doxorubicin treated cells co-treated with agent” value [10] was “prevent” and the “ATF4 level in doxorubicin treated cells co-treated with agent” value [11] was “do not show increase”. For the same compound, the “survival … with immune cells” value [1] was “loss of survival”, the “doxorubicin chemosurvival with co-treatment” value [2] was “significant decrease” and the “doxorubicin chemosurvival of shMETTL3 cells with agent” value ([2]; METTL3 depleted (shMETTL3) cells, doxorubicin plus Trazodone vs buffer (FIG. 8A)) was “Synergistic decrease in chemosurvival was not observed”.

poly I:C was tested, and the elF2α phosphorylation [3] was “induces”, the METTL3 level [4, 15] was “increase” and the Hexim1 level [9] was “increases”. The METTL14 level [10, 15] was “increase” and the “m6A on RNA” value [12, 16] was “increased”.
